{"source": "patent US20180256673A1", "about": "“METHODS FOR TREATING FUNGAL INFECTIONS” (priority 2015, published 2018)", "key": {"Candida dubliniensis": {"test_system": "Candida dubliniensis", "assay": "Broth microdilution of invasive fungal isolates (CLSI M27-A3/M38-A2)", "type": "cell-based", "details": "11 isolates"}, "[1]": {"test_system": "C. albicans vaginal isolates", "assay": "Susceptibility testing of VVC clinical isolates at pH 7 and 4 (CLSI M27-A3)", "type": "cell-based, Candida albicans", "details": "for Number of isolates at MIC 0.06 μg/mL / Number of isolates at MIC 0.125 μg/mL / Number of isolates at MIC 0.25 μg/mL / Number of isolates at MIC 0.5 μg/mL / Number of isolates at MIC 0.03 μg/mL / Number of isolates at MIC […] / Number of isolates at MIC 1 μg/mL: 60 VVC isolates; for MIC90 / MIC: Candida albicans"}, "C. krusei ATCC 6258": {"test_system": "C. krusei ATCC 6258", "assay": "Broth microdilution MIC (CLSI), Examples 3 and 4", "details": "Pichia kudriavzevii, ATCC6258, 24 h, read-out: Broth MIC", "procedure": "Antifungal susceptibility testing. Candida strains were cultured aerobically at 35° C. on SDA plates or in RPMI 1640 broth (pH 7.0). […] MIC assays were performed in triplicate."}, "[2]": {"test_system": "Cryptococcus neoformans var. grubii", "assay": "Broth microdilution of invasive fungal isolates (CLSI M27-A3/M38-A2)", "type": "cell-based", "details": "19 isolates"}, "C. parapsilosis CP02": {"test_system": "C. parapsilosis CP02", "assay": "microbe, parasite or virus in culture", "type": "cell-based, Candida parapsilosis", "details": "Lodderomyces parapsilosis"}, "[3]": {"test_system": "C. parapsilosis vaginal isolates", "assay": "Susceptibility testing of VVC clinical isolates at pH 7 and 4 (CLSI M27-A3)", "type": "cell-based, Candida parapsilosis", "details": "24 h"}}, "note": "Where two headings read alike, the source gives them in different places. Starred links: 1 amine or outer side, 2 acyl side, 3 side chain; linkers in the order of their positions; H or OH if unused. Positions of bridges follow the written chain, without caps; N, C: chain ends. Non-standard residues stand in square brackets, D forms with d. Residues, ends and D or L forms follow the SMILES beside them. *: point of attachment. Orn(4R-OH,5R-OCH2CH2NMe3+) = C[N+](C)(C)CCO[C@@H](N[*:3])[C@H](O)C[C@H](N[*:1])C(=O)[*:2]; pTerphenylCO(4''-OnC5H11) = CCCCCOc1ccc(-c2ccc(-c3ccc(C(=O)*)cc3)cc2)cc1; hTyr(3S-OH,4S-OH) = N[C@H](C(=O)O)[C@H](O)[C@@H](O)c1ccc(O)cc1; Pro(3S-OH,4S-Me) = C[C@H]1CN[C@H](C(=O)O)[C@H]1O; Hyp = O=C(O)[C@@H]1C[C@@H](O)CN1"}
{"smiles": "CCCCCOc1ccc(-c2ccc(-c3ccc(C(=O)N[C@H]4C[C@@H](O)[C@@H](OCC[N+](C)(C)C)NC(=O)[C@@H]5[C@@H](O)[C@@H](C)CN5C(=O)[C@H]([C@@H](C)O)NC(=O)[C@H]([C@H](O)[C@@H](O)c5ccc(O)cc5)NC(=O)[C@@H]5C[C@@H](O)CN5C(=O)[C@H]([C@@H](C)O)NC4=O)cc3)cc2)cc1", "note": "[Compound 1] ({pTerphenylCO(4''-OnC5H11)}-[Orn(4R-OH,5R-OCH2CH2NMe3+)]T[Hyp][hTyr(3S-OH,4S-OH)]T[Pro(3S-OH,4S-Me)]; lactam 1-C)", "values": [{"measurement": "Cumulative % of isolates inhibited at MIC 0.03 μg/mL", "setting": "Candida dubliniensis", "result": "(54.5) %"}, {"measurement": "Cumulative % of isolates inhibited at MIC 0.06 μg/mL", "setting": "Candida dubliniensis", "result": "(90.9) %"}, {"measurement": "Cumulative % of isolates inhibited at MIC 0.12 μg/mL", "setting": "Candida dubliniensis", "result": "(100.0) %"}, {"measurement": "Number of isolates inhibited at MIC 0.03 μg/mL", "setting": "Candida dubliniensis", "result": 6}, {"measurement": "Number of isolates inhibited at MIC 0.06 μg/mL", "setting": "Candida dubliniensis", "result": 4}, {"measurement": "Number of isolates inhibited at MIC 0.12 μg/mL", "setting": "Candida dubliniensis", "result": 1}, {"measurement": "MIC50", "setting": "Candida dubliniensis; Candida dubliniensis, read-out: MIC50", "result": 0.03, "unit": "µg/mL"}, {"measurement": "MIC90", "setting": "Candida dubliniensis; Candida dubliniensis, read-out: MIC90", "result": 0.06, "unit": "µg/mL"}, {"measurement": "Number of isolates at MIC 0.06 μg/mL", "setting": "[1]; 24 h, pH 4", "result": 1}, {"measurement": "Number of isolates at MIC 0.125 μg/mL", "setting": "[1]; 24 h, pH 4", "result": 33}, {"measurement": "Number of isolates at MIC 0.25 μg/mL", "setting": "[1]; 24 h, pH 4", "result": 23}, {"measurement": "Number of isolates at MIC 0.5 μg/mL", "setting": "[1]; 24 h, pH 4", "result": 3}, {"measurement": "Number of isolates at MIC 0.03 μg/mL", "setting": "[1]; 24 h, pH 7", "result": 43}, {"measurement": "Number of isolates at MIC 0.06 μg/mL", "setting": "[1]; 24 h, pH 7", "result": 10}, {"measurement": "Number of isolates at MIC 0.125 μg/mL", "setting": "[1]; 24 h, pH 7", "result": 2}, {"measurement": "Number of isolates at MIC […]", "setting": "[1]; 24 h, pH 7", "result": 5}, {"measurement": "Number of isolates at MIC 0.125 μg/mL", "setting": "[1]; 48 h, pH 4", "result": 6}, {"measurement": "Number of isolates at MIC 0.25 μg/mL", "setting": "[1]; 48 h, pH 4", "result": 16}, {"measurement": "Number of isolates at MIC 0.5 μg/mL", "setting": "[1]; 48 h, pH 4", "result": 34}, {"measurement": "Number of isolates at MIC 1 μg/mL", "setting": "[1]; 48 h, pH 4", "result": 4}, {"measurement": "Number of isolates at MIC 0.03 μg/mL", "setting": "[1]; 48 h, pH 7", "result": 29}, {"measurement": "Number of isolates at MIC 0.06 μg/mL", "setting": "[1]; 48 h, pH 7", "result": 16}, {"measurement": "Number of isolates at MIC 0.125 μg/mL", "setting": "[1]; 48 h, pH 7", "result": 9}, {"measurement": "Number of isolates at MIC 0.25 μg/mL", "setting": "[1]; 48 h, pH 7", "result": 1}, {"measurement": "Number of isolates at MIC 0.5 μg/mL", "setting": "[1]; 48 h, pH 7", "result": 1}, {"measurement": "Number of isolates at MIC 1 μg/mL", "setting": "[1]; 48 h, pH 7", "result": 2}, {"measurement": "Number of isolates at MIC […]", "setting": "[1]; 48 h, pH 7", "result": 2}, {"measurement": "MIC90", "setting": "[1]; 48 h, pH 4", "result": 0.5, "unit": "µg/mL"}, {"measurement": "MIC", "setting": "[1]; 48 h, pH 4, fluconazole-resistant isolate 1, pH 4, 48 h, read-out: MIC", "result": 0.5, "unit": "µg/mL"}, {"measurement": "MIC", "setting": "[1]; 48 h, pH 4, fluconazole-resistant isolate 2, pH 4", "result": 0.125, "unit": "µg/mL"}, {"measurement": "MIC", "setting": "[1]; 48 h, pH 4, fluconazole-resistant isolate 3, pH 4, 48 h, read-out: MIC", "result": 0.5, "unit": "µg/mL"}, {"measurement": "MIC", "setting": "[1]; 48 h, pH 4, fluconazole-resistant isolate 4, pH 4, 48 h, read-out: MIC", "result": 0.25, "unit": "µg/mL"}, {"measurement": "MIC", "setting": "[1]; 48 h, pH 4, fluconazole-resistant isolate 6, pH 4, 48 h, read-out: MIC", "result": 0.5, "unit": "µg/mL"}, {"measurement": "MIC", "setting": "[1]; 48 h, pH 4, fluconazole-resistant isolate 7, pH 4, 48 h, read-out: MIC", "result": 0.5, "unit": "µg/mL"}, {"measurement": "MIC", "setting": "[1]; 48 h, pH 4, fluconazole-resistant isolate 9, pH 4, 48 h, read-out: MIC", "result": 1, "unit": "µg/mL"}, {"measurement": "MIC90", "setting": "[1]; 48 h, pH 7", "result": 0.125, "unit": "µg/mL"}, {"measurement": "MIC", "setting": "[1]; 48 h, pH 7, fluconazole-resistant isolate 1, pH 7, 48 h, read-out: MIC", "result": 0.03, "unit": "µg/mL"}, {"measurement": "MIC", "setting": "[1]; 48 h, pH 7, fluconazole-resistant isolate 2, pH 7", "result": 0.25, "unit": "µg/mL"}, {"measurement": "MIC", "setting": "[1]; 48 h, pH 7, fluconazole-resistant isolate 3, pH 7, 48 h, read-out: MIC", "result": 0.03, "unit": "µg/mL"}, {"measurement": "MIC", "setting": "[1]; 48 h, pH 7, fluconazole-resistant isolate 4, pH 7, 48 h, read-out: MIC", "result": 0.06, "unit": "µg/mL"}, {"measurement": "MIC", "setting": "[1]; 48 h, pH 7, fluconazole-resistant isolate 5, pH 7", "result": 0.125, "unit": "µg/mL"}, {"measurement": "MIC", "setting": "[1]; 48 h, pH 7, fluconazole-resistant isolate 6, pH 7, 48 h, read-out: MIC", "result": 0.03, "unit": "µg/mL"}, {"measurement": "MIC", "setting": "[1]; 48 h, pH 7, fluconazole-resistant isolate 7, pH 7, 48 h, read-out: MIC", "result": 0.03, "unit": "µg/mL"}, {"measurement": "MIC", "setting": "[1]; 48 h, pH 7, fluconazole-resistant isolate 8, pH 7", "result": 0.125, "unit": "µg/mL"}, {"measurement": "MIC", "setting": "[1]; 48 h, pH 7, fluconazole-resistant isolate 9, pH 7, 48 h, read-out: MIC", "result": 1, "unit": "µg/mL"}, {"measurement": "MIC", "setting": "[1]; 48 h, pH 7, fluconazole-resistant isolate 10, pH 7", "result": 0.125, "unit": "µg/mL"}, {"measurement": "MIC90", "setting": "[1]; 60 isolates, pH 4, 24 h, read-out: MIC90", "result": 0.25, "unit": "µg/mL"}, {"measurement": "MIC90", "setting": "[1]; 60 isolates, pH 7, 24 h, read-out: MIC90", "result": 0.06, "unit": "µg/mL"}, {"measurement": "MIC", "setting": "C. krusei ATCC 6258", "result": 0.06, "unit": "µg/mL"}, {"measurement": "Cumulative % of isolates inhibited at MIC 8 μg/mL", "setting": "[2]", "result": "(31.6) %"}, {"measurement": "Cumulative % of isolates inhibited at MIC >8 μg/mL", "setting": "[2]", "result": "(100.0) %"}, {"measurement": "Number of isolates inhibited at MIC 8 μg/mL", "setting": "[2]", "result": 6}, {"measurement": "Number of isolates inhibited at MIC >8 μg/mL", "setting": "[2]", "result": 13}, {"measurement": "MIC50", "setting": "[2]; Cryptococcus neoformans, read-out: MIC50", "result": 8, "unit": "µg/mL"}, {"measurement": "MIC90", "setting": "[2]; Cryptococcus neoformans, read-out: MIC90", "result": 8, "unit": "µg/mL"}, {"measurement": "MIC", "setting": "C. parapsilosis CP02; CP02, CP02 P20-1, selecting drug ANID", "result": 4, "unit": "µg/mL"}, {"measurement": "MIC", "setting": "C. parapsilosis CP02; CP02, CP02 P20-1, selecting drug CMP1", "result": 4, "unit": "µg/mL"}, {"measurement": "MIC", "setting": "C. parapsilosis CP02; CP02, read-out: MIC P20, CP02, total population after 20 passages with the selecting drug, MIC of selecting drug", "result": 4, "unit": "µg/mL"}, {"measurement": "MIC90", "setting": "[3]; pH 4", "result": 2, "unit": "µg/mL"}, {"measurement": "MIC90", "setting": "[3]; pH 7", "result": 2, "unit": "µg/mL"}]}
